From patent publication US7501429B2, “Pyrimidine compounds as anti-ictogenic and/or anti-epileptogenic agents” (Queen's University at Kingston, priority 2001, dated 2009) come the findings set out here.

The subject of this assay is pilocarpine induced-seizures. As to the kind of experiment: Pilocarpine induced-seizure (PIS) model. Format: in vivo. The settings on record: uracils in the Pilocarpine model; scale maximum = 4. As for the experimental part:
Pilocarpine Induced-seizure (PIS) Model
All test compounds are normally dissolved in a mixture of saline (NaCl 0.9% by mass) and 10% DMSO. However, in case of solubility problems, the concentration of DMSO may be increased to a maximum of 50%. This biological test is performed following the procedure disclosed in PCT publication WO 98/40055 (Queen's University at Kingston).

For the compound `Cc1cn(C2CC(O)C(CO)O2)c(=O)[nH]c1=O` (stereo not drawn) [Compound P19, 1-(4-hydroxy-5-hydroxymethyl-tetrahydro-furan-2-yl)-5-methyl-1H-pyrimidine-2,4-dione], the “Relative Activity (Maximum = 4)” value is recorded as “Minimally Active”. On to `Cc1[nH]c(=O)[nH]c(=O)c1C` [Compound P14, 5,6-dimethyl-1H-pyrimidine-2,4-dione], for which the “Relative Activity (Maximum = 4)” value was “Active - +2”. As for `Cc1cc(=O)n(Cc2ccc([N+](=O)[O-])cc2)c(=O)n1Cc1ccc([N+](=O)[O-])cc1` [Compound P33, 6-methyl-1,3-bis-(4-nitro-benzyl)-1H-pyrimidine-2,4-dione], the “Relative Activity (Maximum = 4)” value is “Active +2”. Regarding `O=c1cc[nH]c(=O)[nH]1` [Compound P1, 1H-pyrimidine-2,4-dione], the “Relative Activity (Maximum = 4)” value is given as “Active - +2”. In the case of `Cc1c[nH]c(=O)[nH]c1=O` [Compound P2, 5-methyl-1H-pyrimidine-2,4-dione], the “Relative Activity (Maximum = 4)” value is on record as “Active - +2”. With `Cn1ccc(=O)n(C)c1=O` [Compound P35, 1,3-dimethyl-1H-pyrimidine-2,4-dione] the entry was “Active +3”. As for `NN1C(=O)CCN(Cc2ccccc2)C1=O` [Compound P38, 3-amino-1-benzyl-dihydro-pyrimidine-2,4-dione], the “Relative Activity (Maximum = 4)” value is “Active +2”. In the case of `O=c1c(Cc2cn(Cc3ccccc3)c(=O)n(Cc3ccccc3)c2=O)cn(Cc2ccccc2)c(=O)n1Cc1ccccc1` [Compound P43], the “Relative Activity (Maximum = 4)” value is “Active +3”.

Take `CCC(C)n1cc(Br)c(=O)[nH]c1=O` (stereo not drawn) [Compound P20, 5-bromo-1-sec-butyl-1H-pyrimidine-2,4-dione]: the “Relative Activity (Maximum = 4)” value is recorded as “Active - +1”. On to `Cc1cc(=O)[nH]c(=O)n1Cc1ccccc1` [Compound P27, 1-benzyl-6-methyl-1H-pyrimidine-2,4-dione], for which the “Relative Activity (Maximum = 4)” value is “Active - +2”. Regarding `Cc1cc(=O)[nH]c(=O)[nH]1` [Compound P7, 6-methyl-1H-pyrimidine-2,4-dione], the “Relative Activity (Maximum = 4)” value is on record as “Active - +3”. With `CCCCc1cc2c[nH]c(=O)nc2o1` [Compound P17, 6-butyl-3H-furo[2,3-d]pyrimidin-2-one] the entry was “Active - +1”; with `O=c1[nH]c(=O)n(Cc2ccccc2)cc1I` [Compound P32, 1-benzyl-5-iodo-1H-pyrimidine-2,4-dione], “Active +1”; with `O=c1c(Br)cn(CC2CCCCC2)c(=O)n1CC1CCCCC1` [Compound P24, 5-bromo-1,3-bis-cyclohexylmethyl-1H-pyrimidine-2,4-dione], “Minimally Active”.

With `O=c1ccn(Cc2ccccc2)c(=O)[nH]1` [Compound P26, 1-benzyl-1H-pyrimidine-2,4-dione], the “Relative Activity (Maximum = 4)” value was “Active - +2”. Regarding `CC(C)n1cc(Br)c(=O)[nH]c1=O` [Compound P21, 5-bromo-1-isopropyl-1H-pyrimidine-2,4-dione], the “Relative Activity (Maximum = 4)” value is “Active - +1”. For the compound `Cc1[nH]c(=O)[nH]c(=O)c1Br` [Compound P8, 5-bromo-6-methyl-1H-pyrimidine-2,4-dione], the “Relative Activity (Maximum = 4)” value is “Active - +2”. As to `O=c1[nH]cc(I)c(=O)[nH]1` [Compound P6, 5-iodo-1H-pyrimidine-2,4-dione], the “Relative Activity (Maximum = 4)” value is recorded as “Active - +1”. For the compound `O=c1[nH]c(=O)n(Cc2ccccc2)cc1Br` [Compound P22, 1-benzyl-5-bromo-1H-pyrimidine-2,4-dione], the “Relative Activity (Maximum = 4)” value was “Active - +1”. As to `Cn1cc([N+](=O)[O-])c(=O)n(C)c1=O` [Compound P13, 1,3-dimethyl-5-nitro-1H-pyrimidine-2,4-dione], the “Relative Activity (Maximum = 4)” value was “Minimally Active”. As to `O=c1ccn(CCCO)c(=O)n1CCCO` [Compound P37, 1,3-bis-(3-hydroxy-propyl)-1H-pyrimidine-2,4-dione], the “Relative Activity (Maximum = 4)” value was “Active +2”. With `O=C(O)c1c[nH]c(=O)[nH]c1=O` [Compound P12, 2,4-dioxo-1,2,3,4-tetrahydro-pyrimidine-5-carboxylic acid] the entry was “Active - +2”.

As for `CSCc1c[nH]c(=O)[nH]c1=O` [Compound P31, 5-methylsulfanylmethyl-1H-pyrimidine-2,4-dione], the “Relative Activity (Maximum = 4)” value is listed as “Minimally Active”.

For the compound `NC(=O)c1cnn(-c2cccc(N)c2)c1` [Compound P42, 1-(3-amino-phenyl)-1H-pyrazole-4-carboxylic acid amide], the “Relative Activity (Maximum = 4)” value is reported as “Active +2”. Take `O=c1[nH]cc(Br)c(=O)[nH]1` [Compound P5, 5-bromo-1H-pyrimidine-2,4-dione]: the “Relative Activity (Maximum = 4)” value is “Active - +1”. With `CC(C)n1ccc(=O)n(C(C)C)c1=O` [Compound P36, 1,3-diisopropyl-1H-pyrimidine-2,4-dione] the entry was “Active +2”; with `O=c1c(Br)cn(Cc2ccc([N+](=O)[O-])cc2)c(=O)n1Cc1ccc([N+](=O)[O-])cc1` [Compound P25, 5-bromo-1,3-bis-(4-nitro-benzyl)-1H-pyrimidine-2,4-dione], “Active - +2”; with `Cn1ccc(=O)[nH]c1=O` [Compound P34, 1-methyl-1H-pyrimidine-2,4-dione], “Minimally Active”.

In the case of `CC1CC(=O)N(N)C(=O)N1Cc1ccccc1` (stereo not drawn) [Compound P39, 3-amino-1-benzyl-6-methyl-dihydro-pyrimidine-2,4-dione], the “Relative Activity (Maximum = 4)” value is “Active +3”. Regarding `CCCCC#Cc1c[nH]c(=O)[nH]c1=O` [Compound P18, 5-hex-1-ynyl-1H-pyrimidine-2,4-dione], the “Relative Activity (Maximum = 4)” value was “Active - +1”. For the compound `Cc1[nH]c(=O)[nH]c(=O)c1[N+](=O)[O-]` [Compound P9, 6-methyl-5-nitro-1H-pyrimidine-2,4-dione], the “Relative Activity (Maximum = 4)” value was “Active - +2”.

In the case of `O=c1[nH]cc(O)c(=O)[nH]1` [Compound P4, 5-hydroxy-1H-pyrimidine-2,4-dione], the “Relative Activity (Maximum = 4)” value is “Active - +2”. With `O=c1[nH]c(=O)n(CC2CCCCC2)cc1Br` [Compound P23, 5-bromo-1-cyclohexylmethyl-1H-pyrimidine-2,4-dione], the “Relative Activity (Maximum = 4)” value is “Minimally Active”. As for `O=C(O)c1cc(=O)[nH]c(=O)[nH]1` [Compound P11, 2,6-dioxo-1,2,3,6-tetrahydro-pyrimidine-4-carboxylic acid], the “Relative Activity (Maximum = 4)” value is on record as “Active - +2”. Regarding `Nc1c(C(=O)O)[nH]c(=O)[nH]c1=O` [Compound P10, 5-amino-2,6-dioxo-1,2,3,6-tetrahydro-pyrimidine-4-carboxylic acid], the “Relative Activity (Maximum = 4)” value is on record as “Minimally Active”. Turning to `O=c1[nH]cc(CO)c(=O)[nH]1` [Compound P3, 5-hydroxymethyl-1H-pyrimidine-2,4-dione], the “Relative Activity (Maximum = 4)” value is reported as “Active - +3”.
